Measurements from patent publication US9642839B2, “Substance having tyrosine kinase inhibitory activity and preparation method and use thereof” (Institute of Radiation Medicine, China Academy of Military …, priority 2013, dated 2017).

Experiments:
[1] = system: protein tyrosine kinase (PTK); assay: PTK activity assay with mouse brain tissue extract (ELISA, OD 492 nm); assay type: biochemical; settings: at 400 μM
Description: Tyrosine kinase buffer: 10 mL 1M HEPES (pH 7.5), 0.4 mL 5% BSA/PBS, 0.2 mL 0.1M Na3VO4, and 1 mL 5M NaCl were added to 88.4 mL double distilled water (DDW) (HEPES: Amresco; Na3VO4: Sigma).
Extraction of tissue extract PTK: mouse brain tissue was quickly removed and weighed, followed by addition of five-fold volumes of pre-cooled homogenization buffer for homogenization. After centrifugation at 4° C., 1,000 g for 10 min, nuclei and cell debris were removed. The supernatant S1 was collected and centrifuged at 4° C., 10,000 g for 20 min, and then the supernatant S2 was collected. The precipitate P2, which represents the crude membrane protein fraction, was retained. S2 included cytoplasmic protein, and was used for testing protein tyrosine kinase (PTK) activity. In the detection of the membrane protein fraction, two-fold volumes of lysis buffer was added to P2, and the resultant was placed on ice for 10 min and centrifuged at 4° C., 10,000 g for 10 min. The supernatant S3, which represents the crude membrane protein including soluble membrane protein, was collected for testing PTK activity. Protein content in cytoplasm or membrane protein was detected by using BCA protein concentration kit (purchased from Beyotime Institute of Biotechnology). The tissue extract was stored at −70° C.
Coating of 96-well plate: PTK substrate was dissolved and added in an amount of 100 μl to each well. The plate was covered with its lid, and incubated at 4° C. overnight (10-12 hours). Then it was washed with 200 μl elution buffer once, and dried at 37° C. for 2 h. After that, it was washed with 10 mM PBS once, dried at room temperature, and then stored at 4° C. for further use.
Groups: blank control: 80 μl 1× tyrosine kinase buffer containing ATP+20 μl 1× tyrosine kinase buffer; negative control: 80 μl 1× tyrosine kinase buffer containing ATP+10 μl 1× tyrosine kinase buffer+7 μl tissue extract+3 μl 1× tyrosine kinase buffer; positive control: 80 μl 1× tyrosine kinase buffer containing ATP+10 μl Gefitinib+7 μl tissue extract+3 μl 1× tyrosine kinase buffer (first, the positive drug was allowed to interact with the tyrosine kinase tissue extract at room temperature for 10 min, and meanwhile the tissue extract for the negative control group was also placed at room temperature for 10 min, and then 80 μl 1× tyrosine kinase buffer containing ATP was added to respective groups); vehicle control: 80 μl 1× tyrosine kinase buffer containing ATP+10 μl DMSO+7 μl tissue extract+3 μl 1× tyrosine kinase buffer; drugs to be screened: 80 μl 1× tyrosine kinase buffer containing ATP+10 μl drug to be tested +7 μl tissue extract+3 μl 1× tyrosine kinase buffer.
PTK activity assay: 1× tyrosine kinase buffer was prepared by evenly mixing 1 mL (10×) tyrosine kinase buffer with 9 mL DDW. The tissue extract was diluted with 1× tyrosine kinase buffer appropriately, mixed with it gently and evenly, and placed on ice. ATP stock solution was dissolved by evenly mixing 48 μl ATP stock solution with 1 mL 1× tyrosine kinase buffer, and placed on ice. The microplate reader was added in respective wells with the groups formulated as above, covered with the lid, and incubated at room temperature for 30 min. The microplate reader was washed with 200 μl elution buffer and tapped until the residual buffer was removed, and this procedure was repeated for five times. To each well, 100 μl antibody diluent (antibody elution buffer diluted at a ratio of 1:2000) was added. The reader was covered with the lid, and incubated at room temperature for 30 min. OPD solution was prepared by addition of 4 mg OPD into a mixture of 4.86 mL 0.1 mol/L citric acid solution and 5.14 mL 0.2 mol/L Na2HPO4 solution, followed by addition of 50 μl 30% H2O2 to allow for complete dissolution, and then was protected from light. The antibody solution was removed. The reader was washed with 200 μl elution buffer and tapped until the residual buffer was removed, and this procedure was repeated for five times.

L02 cells = assay: MTS cell proliferation, normal liver cells; assay type: cell-based; settings: Homo sapiens, L02, normal hepatic cells, 72 hours
Description: […] After culture at 37° C., 5% CO2 for 72 hours, MTS reagent (Promega Corporation) were added for further culture for 2-4 h.

FGFR = assay: Kinase Glo Plus kinase activity assay; assay type: biochemical
Description: (§1) 2) Activity of the rest 14 receptor tyrosine kinases was tested by using Kinase Glo Plus assay format, Progmag, and IC50 with regard to kinase activity was calculated based on the inhibition rate.

PDGFR = assay: Kinase Glo Plus kinase activity assay; assay type: biochemical
Description: as §1

TrkA [2] = target: T1, TrkA (Homo sapiens, UniProt P04629); assay: Kinase Glo Plus kinase activity assay; assay type: biochemical
Description: as §1

TrkB = TrkB (Homo sapiens, UniProt Q16620); assay: Kinase Glo Plus kinase activity assay; assay type: biochemical
Description: as §1

c-Met = settings: MHCC97-H cells, 2 μM versus 1 μM SU11274
Description: The medium was changed once every 1-2 days. […] The supernatant was discarded, and fresh medium was added for subculture.
SU11274 (purchased from Sigma) is a specific c-Met kinase inhibitor which may block activation of c-Met. […] After incubation with the compounds for 2 h, the cells were harvested and total protein was extracted. Western blot assay was carried out with c-Met phosphorylated and non-phosphorylated antibodies, ERK phosphorylated and non-phosphorylated antibodies, Akt phosphorylated and non-phosphorylated antibodies (all purchased from Cell Signaling), and GAPDH antibody (purchased from Santa Cruz).

TrkA [3] = target: T1, TrkA; assay: Western blot, NGF-induced TrkA phosphorylation and signaling pathway in SK-N-SH cells; assay type: cell-based; settings: 0.05-1.0 μM, 500 ng/mL NGF
Description: The medium was changed once every 1-2 days. […] 500 ng/mL NGF or 200 ng/ml BDNF (if not added, marked as “-”) were added to stimulate the cells for 5 min. After cell lysis, total protein was extracted. Western blot assay was carried out with TrkA phosphorylated and non-phosphorylated (p-TrkA) antibodies, TrkB phosphorylated and non-phosphorylated (p-TrkB) antibodies, ERK phosphorylated and non-phosphorylated (p-ERK) antibodies, Akt phosphorylated and non-phosphorylated (p-Akt) antibodies, and GAPDH antibody.

T1 sequence (P04629 33-796, species assumed): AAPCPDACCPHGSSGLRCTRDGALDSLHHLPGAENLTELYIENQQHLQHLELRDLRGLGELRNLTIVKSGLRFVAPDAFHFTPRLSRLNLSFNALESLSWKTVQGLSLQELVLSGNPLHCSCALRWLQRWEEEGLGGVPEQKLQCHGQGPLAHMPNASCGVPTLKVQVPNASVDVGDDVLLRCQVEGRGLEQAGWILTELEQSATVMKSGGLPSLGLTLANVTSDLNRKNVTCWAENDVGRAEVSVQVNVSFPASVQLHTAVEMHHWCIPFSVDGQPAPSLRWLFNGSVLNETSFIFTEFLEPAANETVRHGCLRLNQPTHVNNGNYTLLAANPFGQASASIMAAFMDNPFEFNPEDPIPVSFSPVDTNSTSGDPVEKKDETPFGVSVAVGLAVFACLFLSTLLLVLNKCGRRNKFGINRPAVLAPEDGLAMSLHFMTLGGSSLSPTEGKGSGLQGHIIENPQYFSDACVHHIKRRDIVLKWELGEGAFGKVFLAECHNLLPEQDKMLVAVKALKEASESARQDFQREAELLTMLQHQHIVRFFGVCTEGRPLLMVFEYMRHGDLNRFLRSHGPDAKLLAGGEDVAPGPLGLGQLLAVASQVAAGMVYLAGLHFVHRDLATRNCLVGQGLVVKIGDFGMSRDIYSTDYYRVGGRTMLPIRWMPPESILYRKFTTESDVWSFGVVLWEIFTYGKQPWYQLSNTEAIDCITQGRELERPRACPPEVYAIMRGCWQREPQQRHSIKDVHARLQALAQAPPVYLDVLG
Chain of TrkB (Q16620 32-822, species assumed): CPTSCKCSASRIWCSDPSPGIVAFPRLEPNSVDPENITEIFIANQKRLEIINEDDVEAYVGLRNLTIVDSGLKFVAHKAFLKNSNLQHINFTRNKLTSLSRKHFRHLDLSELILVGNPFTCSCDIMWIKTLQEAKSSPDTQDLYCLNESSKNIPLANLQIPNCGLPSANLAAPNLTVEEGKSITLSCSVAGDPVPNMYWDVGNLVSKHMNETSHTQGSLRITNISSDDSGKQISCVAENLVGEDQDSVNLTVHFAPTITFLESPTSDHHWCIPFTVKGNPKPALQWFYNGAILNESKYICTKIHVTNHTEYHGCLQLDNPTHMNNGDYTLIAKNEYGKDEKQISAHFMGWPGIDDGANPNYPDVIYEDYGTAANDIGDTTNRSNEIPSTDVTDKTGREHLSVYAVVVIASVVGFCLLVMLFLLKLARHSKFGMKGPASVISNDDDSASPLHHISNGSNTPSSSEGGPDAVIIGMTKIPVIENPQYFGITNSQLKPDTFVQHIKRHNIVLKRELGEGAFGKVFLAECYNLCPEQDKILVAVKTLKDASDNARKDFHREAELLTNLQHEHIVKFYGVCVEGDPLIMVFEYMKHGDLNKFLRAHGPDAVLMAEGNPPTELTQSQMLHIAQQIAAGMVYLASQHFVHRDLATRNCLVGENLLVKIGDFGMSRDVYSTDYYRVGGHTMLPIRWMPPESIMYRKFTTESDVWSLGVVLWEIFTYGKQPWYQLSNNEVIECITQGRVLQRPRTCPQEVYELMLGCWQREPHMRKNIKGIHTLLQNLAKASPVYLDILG

Question: Which results are given for `Cc1ccccc1NS(=O)(=O)c1ccc2c(c1)/C(=C/c1nc3ccccc3[nH]1)C(=O)N2` [Indo 5, 3-(1H-benzimidazol-2-methylene)-5-(2-methylphenylaminosulfo)-2-indolone]?
Answer: Inhibition rate on tyrosine kinase [1]: 53.4%; IC50 (L02 cells): 20.9 µM; IC50 (FGFR): > 10 µM; IC50 (PDGFR): > 10 µM; IC50 (TrkA [2]): 22 nM; IC50 (TrkB): 230 nM; Inhibitory effect on c-Met phosphorylation versus positive control (c-Met): comparable to the positive control SU11274; Phosphorylation of TrkA and downstream ERK (TrkA [3]): significantly inhibited
